Drawing on patent publication US9120798B2, “Amino-heteroaryl 7-hydroxy-spiropiperidine indolinyl antagonists of P2Y1 receptor” (priority 2012, dated 2015), this text covers Ki and IC50 for 18 compounds.

Some results are limits rather than exact numbers.

Test [1] deals with T1, cloned human P2Y1 receptors (Homo sapiens (Human), UniProt P47900). The experiment in a line: Binding Assay A: membrane binding assay, [33P] 2MeS-ADP, WGA FlashPlates. The text has this:
A membrane binding assay was used to identify inhibitors of [^33P] […] The cDNA clone for human P2Y1 was obtained from Incyte Pharmaceuticals and its sequence confirmed by established techniques (for a compendium of techniques used see Ausubel, F. et al. Current Protocols in Molecular Biology, John Wiley and Sons, NY, N.Y. (1995)). The essential coding sequences were subcloned into pCDNA 3.1 (Invitrogen) to produce a P2Y1 expression construct. This construct was then transfected into the human embryonic kidney cell line HEK-293 and stable transfectants selected in GENETICIN® (G418 sulfate; Life Technologies). […] Membranes were prepared by growing HEK293 #49 in 150 mm dishes in DMEM/10% FBS in the presence of 1 mg/ml G418 until cells were 80-90% confluent. Plates were then washed with cold (4° C.) D-PBS twice and cells harvested by scraping into 10 mL D-PBS. Cells were pelleted by centrifugation (1,000 g, 10 min, 4° C.) and the resulting pellet resuspended in Lysis Buffer (10 mM Tris (7.4), 5 mM MgCl2 containing Complete protease inhibitor cocktail (Roche Cat #1873580) as recommended by the manufacturer). The suspension was then homogenized in a Dounce homogenizer (10-15 strokes; B pestle, on ice) and the homogenate spun at 1,000 g, 4° C., 5 min to pellet large debris. The supernatant was centrifuged at 150,000 g, 4° C., for 1 hour and the resulting membrane pellet resuspended in 0.5-1 mL of Buffer B (15 mM HEPES (7.4), 145 mM NaCl, 0.1 mM MgCl2, 5 mM EDTA, 5 mM KCl) and stored at −70° C. until used.
Binding reactions were performed in WGA FlashPlates (PerkinElmer Life Sciences, Cat # SMP105A) in a volume of 200 μL containing ˜45 fmol of P2Y1 receptor (5 μg of total protein), 0.5 nM [^33P] […] Reactions were allowed to proceed to completion at room temperature for 1 hour and then the aqueous solution aspirated. Plates were sealed and the residual [^33P] bound to the plate determined by scintillation counting.

For test [2], the system named is human platelet rich plasma (PRP). Put plainly: ADP induced platelet aggregation assay. Format: cell-based. The settings on record: 5 min, read-out: PA IC50 (μM) @ 10 μM ADP. How it is done: ADP Induced Platelet Aggregation Assay
The ability of P2Y1 antagonists covered in the present invention to inhibit platelet aggregation induced by 10 μM ADP was tested using human platelet rich plasma (PRP) as described in Platelet Protocols: Research and Clinical Laboratory Procedures (White, M. M. et al., Academic Press (1999)). Human blood was collected in 30 μM (final concentration in blood) argatroban (GSK) as the anticoagulant at a ratio of 1 ml per 9 ml of blood. The PRP was isolated by centrifugation at 170 g for 12 minutes. The platelet poor plasma (PPP) was used as the blank for optical aggregometry. Compounds of the present invention in DMSO solution was preincubated with 250 μl PRP at 37° C. for 1 minute with stirring speed of 1000 rpm. Aggregation was initiated by addition of 2.5 μl of 1 mM ADP (Chrono-log, Havertown, Pa.) for a final ADP concentration of 10 uM. Platelet aggregation was monitored using Optical Aggregometer (Chrono-log, Havertown, Pa.) and the area under the curve (AUC) at 5 minute was measured. IC50 was calculated using vehicle control as 0% inhibition.
The platelet aggregation assay measures the in vitro antiplatelet activity of a compound in platelet rich plasma. The assay is sensitive to plasma protein binding, and is believed to be a better predictor of actual in vivo activity.

Test [3] addresses T1, cloned human P2Y1 receptors. Put plainly: Binding Assay B: Scintillation Proximity Assay (SPA) for P2Y1 binding. How it is done: Binding Assay B—Scintillation Proximity Assay (SPA) for P2Y1 Binding
A SPA membrane binding assay was used to identify inhibitors of [^33P] […] Binding reactions were performed in 384-well OptiPlates (PerkinElmer Life Sciences, Cat #6007299) in a volume of 50 μL containing ˜15 fmol of P2Y1 receptor (1.7 μg of total protein), 0.3 nM [^33P] […] Reactions were allowed to proceed to completion at room temperature for 1 hour followed by centrifugation of the plate for 5 min. About 40 μL of the aqueous solution was aspirated. Plates were sealed and the [^33P]

Where [4] appears, read: read-out: P2Y1 Ki (nM), *Using binding assay A.
The mark [5] stands for this setting: starred values, FlashPlate, 0.5 nM [33P] 2MeS-ADP, Cheng-Prusoff, read-out: P2Y1 Ki (nM), *Using binding assay A.

T1 sequence (P47900 whole entry): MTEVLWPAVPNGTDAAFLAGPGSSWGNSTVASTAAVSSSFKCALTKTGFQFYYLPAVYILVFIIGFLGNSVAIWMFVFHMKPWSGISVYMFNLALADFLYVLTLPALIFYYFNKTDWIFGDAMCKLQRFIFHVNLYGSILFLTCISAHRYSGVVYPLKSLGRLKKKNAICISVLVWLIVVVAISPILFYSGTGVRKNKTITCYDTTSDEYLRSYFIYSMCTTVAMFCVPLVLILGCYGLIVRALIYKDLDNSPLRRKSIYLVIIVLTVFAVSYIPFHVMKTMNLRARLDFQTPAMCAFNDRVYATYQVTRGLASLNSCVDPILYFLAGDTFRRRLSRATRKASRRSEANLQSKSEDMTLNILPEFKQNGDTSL

With `CC(C)(C)CN1CCC2(CC1)CN(c1ccccc1Nc1nc(C(F)(F)F)c(-c3ccccc3)s1)c1ccccc12` [Comparator 4, reference compound], in test [1] (setting [4]), the Ki is 7.9 nM. Further, in test [2], the IC50 is over 40 µM.
Take `COC(=O)c1sc(Nc2ccccc2N2CC3(CCN(CC(C)(C)C)CC3)c3ccccc32)nc1C` [Comparator 3, reference compound]: the Ki in test [1] (setting [4]) came to 18 nM. Besides, the IC50 in test [2] is over 40 µM.
Take `CC(C)(C)CN1CCC2(CC1)CN(c1ccccc1Nc1nnc(-c3ccc(C(F)(F)F)nc3)s1)c1c(O)ccc(Cl)c12` [Example 15, 4-Chloro-1′-neopentyl-1-(2-((5-(6-(trifluoromethyl)pyridin-3-yl)-1,3,4-thiadiazol-2-yl)amino)phenyl)spiro[indoline-3,4′-piperidin]-7-ol]: affinity in test [1] was put at a Ki of 5.7 nM. The IC50 in test [2] is 1.6 µM.
For `CC(C)(C)CN1CCC2(CC1)CN(c1ccccc1Nc1nnc(C3CCOCC3)s1)c1c(O)ccc(Cl)c12` [Example 14, 4-Chloro-1′-neopentyl-1-(2-((5-(tetrahydro-2H-pyran-4-yl)-1,3,4-thiadiazol-2-yl)amino)phenyl)spiro[indoline-3,4′-piperidin]-7-ol], the Ki in test [1] (setting [4]) is 155 nM. In test [2], the IC50 was determined as 23 µM.
With `CC(C)(C)CN1CCC2(CC1)CCN(c1ccccc1Nc1nc3ccc(C(C)(C)C)cc3[nH]1)c1ccccc12` [Comparator 1, reference compound], the Ki in test [1] (setting [4]) was 259 nM. Besides, the IC50 in test [2] was over 40 µM.
For `CC(C)(C)CN1CCC2(CC1)CN(c1ccccc1Nc1nnc(-c3cnccn3)s1)c1c(O)ccc(Cl)c12` [Example 12, 4-Chloro-1′-neopentyl-1-(2-((5-(pyrazin-2-yl)-1,3,4-thiadiazol-2-yl)amino)phenyl)spiro[indoline-3,4′-piperidin]-7-ol], the Ki in test [1] (setting [5]) turned out to be 6.5 nM. Further, the IC50 in test [2] came to 0.9 µM.
In turn, `CC(C)(C)CN1CCC2(CC1)CN(c1ccccc1Nc1nnc(-c3cccnc3)s1)c1c(O)ccc(Cl)c12` [Example 9, 4-Chloro-1′-neopentyl-1-(2-((5-(pyridin-3-yl)-1,3,4-thiadiazol-2-yl)amino)phenyl)spiro[indoline-3,4′-piperidin]-7-ol] yielded a Ki in test [1] of 24.3 nM. Moreover, the IC50 in test [2] stood at 8.5 µM.
Regarding `CC(C)(C)CN1CCC2(CC1)CN(c1ccccc1Nc1nnc(-c3ccc(C(F)(F)F)cc3)s1)c1c(O)ccc(Cl)c12` [Example 7, 4-Chloro-1′-neopentyl-1-(2-(5-(4-(trifluoromethyl)phenyl)-1,3,4-thiadiazol-2-ylamino)phenyl)spiro[indoline-3,4′-piperidin]-7-ol], the affinity in test [1] corresponds to a Ki of 3.3 nM. Besides, the IC50 in test [2] was found to be 2.7 µM.
With `CCOC(=O)c1sc(Nc2ccccc2N2CC3(CCN(CC(C)(C)C)CC3)c3ccccc32)nc1C(F)(F)F` [Comparator 2, reference compound], the Ki in test [1] (setting [4]) was 6.3 nM. The IC50 in test [2] is over 40 µM.
As for `Cc1cc(-c2nnc(Nc3ccccc3N3CC4(CCN(CC(C)(C)C)CC4)c4c(Cl)ccc(O)c43)s2)n(C)n1` [Example 13, 4-Chloro-1-(2-((5-(1,3-dimethyl-1H-pyrazol-5-yl)-1,3,4-thiadiazol-2-yl)amino)phenyl)-1′-neopentylspiro[indoline-3,4′-piperidin]-7-ol], the Ki in test [1] (setting [5]) was 6.6 nM. Moreover, the IC50 in test [2] is 0.9 µM.
The compound `CC(C)(C)CN1CCC2(CC1)CN(c1ccccc1Nc1nnc(-c3cc(F)ccc3Cl)s1)c1c(O)ccc(Cl)c12` [Example 24, 4-chloro-1-(2-((5-(2-chloro-5-fluorophenyl)-1,3,4-thiadiazol-2-yl)amino)phenyl)-1′-neopentylspiro[indoline-3,4′-piperidin]-7-ol] showed a Ki in test [3] of 28 nM. Moreover, the IC50 in test [2] was determined as 4.5 µM.
The compound `CC(C)(C)CN1CCC2(CC1)CN(c1ccccc1Nc1nnc(-c3ccc(C(C)(C)C)cc3)s1)c1c(O)ccc(C#N)c12` [Example 46, 1-(2-(5-(4-tert-Butylphenyl)-1,3,4-thiadiazol-2-ylamino)phenyl)-7-hydroxy-1′-neopentylspiro[indoline-3,4′-piperidine]-4-carbonitrile] registered a Ki in test [3] of 10 nM. Further, the IC50 in test [2] turned out to be 1.1 µM.
In turn, `CC(C)(C)CN1CCC2(CC1)CN(c1ccccc1Nc1nnc(-c3ccccn3)s1)c1c(O)ccc(C(F)(F)F)c12` [Example 6, 1′-Neopentyl-1-(2-(5-(pyridin-2-yl)-1,3,4-thiadiazol-2-ylamino)phenyl)-4-(trifluoromethyl)spiro[indoline-3,4′-piperidin]-7-ol] returned a Ki in test [3] of 11 nM. Also, the IC50 in test [2] came out at 2.3 µM.
`CC(C)(C)CN1CCC2(CC1)CN(c1ccccc1Nc1nnc(-c3cnc4ccccc4n3)s1)c1c(O)ccc(Cl)c12` [Example 16, 4-chloro-1′-neopentyl-1-(2-((5-(quinoxalin-2-yl)-1,3,4-thiadiazol-2-yl)amino)phenyl)spiro[indoline-3,4′-piperidin]-7-ol] had a Ki in test [3] of 66 nM. Besides, in test [2], the IC50 was found to be 17.7 µM.
Turning to `COC(=O)c1ccc(O)c2c1C1(CCN(CC(C)(C)C)CC1)CN2c1ccccc1Nc1nnc(-c2ccc(C(C)(C)C)cc2)s1` [Example 44, Methyl 1-(2-(5-(4-tert-butylphenyl)-1,3,4-thiadiazol-2-ylamino)phenyl)-7-hydroxy-1′-neopentylspiro[indoline-3,4′-piperidine]-4-carboxylate], the Ki in test [3] (SPA, 0.3 nM [33P] 2MeS-ADP, Cheng-Prusoff, read-out: P2Y1 Ki (nM) using binding assay B) turned out to be 8 nM. Moreover, in test [2], the IC50 worked out at 0.8 µM.
The compound `CC(C)(C)CN1CCC2(CC1)CN(c1ccccc1Nc1nnc(-c3cc(Cl)cc(Cl)c3)s1)c1c(O)ccc(Cl)c12` [Example 23, 4-chloro-1-(2-((5-(3,5-dichloro-phenyl)-1,3,4-thiadiazol-2-yl)amino)phenyl)-1′-neopentylspiro[indoline-3,4′-piperidin]-7-ol] displayed a Ki in test [3] of 19 nM. For the same compound, the IC50 in test [2] was 3.4 µM.
As for `CC(C)(C)CN1CCC2(CC1)CN(c1ccccc1Nc1nnc(-c3ccncc3)s1)c1c(O)ccc(Cl)c12` [Example 10, 4-Chloro-1′-neopentyl-1-(2-((5-(pyridin-4-yl)-1,3,4-thiadiazol-2-yl)amino)phenyl)spiro[indoline-3,4′-piperidin]-7-ol], the Ki in test [3] worked out at 40.2 nM. The IC50 in test [2] came to 11.4 µM.
In test [3], `COC(=O)c1nnc(Nc2ccccc2N2CC3(CCN(CC(C)(C)C)CC3)c3c(Cl)ccc(O)c32)s1` [Example 17, methyl 5-((2-(4-chloro-7-hydroxy-1′-neopentylspiro[indoline-3,4′-piperidin]-1-yl)phenyl)-amino)-1,3,4-thiadiazole-2-carboxylate] returned a Ki of 48 nM. Moreover, the IC50 in test [2] came to 7.2 µM.
